We go through one compound from patent US20100324101A1, “Use of Succinate Dehydrogenase Inhibitors for Increasing the Resistance of Plants or Parts of Plants to Abiotic Stress” (Bayer CropScience AG, priority 2009, published 2010).

Format in all cases: in vivo
Test [1] has as its system oilseed rape - Brassica napus. As to the kind of experiment: Greenhouse drought stress test on oilseed rape after spray treatment. As to conditions: BRSNS (oilseed rape), drought stress 26° C./18° C. (day/night) one week, 7 days recovery; 250 g of a.s./ha, spray 600 l/ha; damage vs untreated stressed plants. As to the method: (§1) Oilseed rape, maize and barley are cultivated on sandy clay under greenhouse conditions. After 2-3 weeks, after BBCH10 to BBCH13 has been reached, the plants are each treated with bixafen at application rates of from 250 g/ha and 100 g/h. The spray volume is adjusted to 600 l/ha. The plants are then exposed to drought stress by heating the test chamber to 26° C./18° C. (day/night) or cold temperature stress brought about by cooling the test chamber to 8° C./1° C. (day/night). After one week, the test chamber is readjusted to normal temperatures and the test plants are then allowed to recover for 7 days. Evaluation of the compounds tested is carried out by comparison of the treated plants with the untreated plants, each of which was exposed to the stress factors, using the formula below: [formula] EFF: efficiency (%) SWug: damage to untreated control plants SWbg: damage to treated plants

A further test relates to barley - Hordeum vulgare. As to the kind of experiment: Greenhouse drought stress test on barley after spray treatment. The conditions noted are these: HORVS (barley), drought stress 26° C./18° C. (day/night) one week, 7 days recovery; 100 g of a.s./ha, spray 600 l/ha; damage vs untreated stressed plants. As to the method: as §1
The next test concerns maize - Zea mays. As to the kind of experiment: Greenhouse cold temperature stress test on maize after spray treatment. The conditions noted are these: cold temperature stress 8° C./1° C. (day/night) one week, 7 days recovery, spray 600 l/ha, damage vs untreated stressed plants. As to the method: as §1

Take `Cn1cc(C(=O)Nc2ccc(F)cc2-c2ccc(Cl)c(Cl)c2)c(C(F)F)n1` [bixafen, N-(3′,4′-dichloro-5-fluoro-1,1′-biphenyl-2-yl)-3-(difluoromethyl)-1-methyl-1H-pyrazole-4-carboxamide]: the Efficiency in test [1] is reported as 15%; with barley - Hordeum vulgare, 22%; in the test with maize - Zea mays (100 g of a.s./ha), 21%; with maize - Zea mays (250 g of a.s./ha) it was 47%.
